Experiment [1] has as its target muscarinic acetylcholine receptors. Nature of the experiment: inhibition of specific binding of ^3 H-Oxotremorine-M (^3 H-Oxo). The conditions noted are these: ^3 H-Oxotremorine 1.0 nM, rat cortex, 30 min. at 25° C. Set-up: species or system rat (male Wistar. A digest of the protocol: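 Rat cortex membranes (male Wistar) in 20 mM Hepes pH 7.4 incubated with 1.0 nM ^3H-Oxotremorine-M (final) and test compound for 30 min at 25 °C; arecoline defines non-specific binding. Bound radioactivity by filtration and scintillation counting; IC50 (nM) from a single concentration via Co/Cx mass-action formula, reflecting high- and medium-affinity sites.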

The target of experiment [2] is T1, muscarinic receptors (M1 -site, pirenzepine sensitive site) (Rattus norvegicus, UniProt P08482).
T1 construct: from tissue; host or cells: cerebral cortex membranes of male Wistar rats
T1 sequence (P08482 1-460): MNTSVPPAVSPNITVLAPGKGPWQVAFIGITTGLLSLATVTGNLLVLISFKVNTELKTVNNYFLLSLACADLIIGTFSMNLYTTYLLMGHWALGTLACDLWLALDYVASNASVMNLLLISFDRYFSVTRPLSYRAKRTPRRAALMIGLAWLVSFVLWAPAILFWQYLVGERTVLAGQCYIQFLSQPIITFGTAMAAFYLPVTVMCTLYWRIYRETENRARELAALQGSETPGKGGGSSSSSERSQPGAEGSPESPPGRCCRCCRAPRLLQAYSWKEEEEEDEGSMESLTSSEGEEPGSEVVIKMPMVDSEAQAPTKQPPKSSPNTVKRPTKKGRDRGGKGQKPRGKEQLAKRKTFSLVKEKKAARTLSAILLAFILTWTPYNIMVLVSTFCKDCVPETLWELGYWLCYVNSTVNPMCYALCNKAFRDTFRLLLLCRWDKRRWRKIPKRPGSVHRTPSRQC
The experiment can be described thus: inhibition of ^3 HPRZ (pirenzepine, [N-methyl-^3 H]) binding to rat cerebral cortex membranes. Also noted: species or system rat (male Wistar. In outline:
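Male Wistar rat cortex membranes in 20 mM Hepes pH 7.4 were incubated with 1.0 nM (final) [3H]pirenzepine for 60 min at 20° C; nonspecific binding was defined with 1 μg/mL atropine. Filtration and scintillation counting were used, and IC50 was calculated from a single concentration assuming mass-action kinetics.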

[3] abbreviates: ^3 HPRZ 1.0 nM, rat cortex, 60 min. at 20° C., read-out: ^3 HPRZ IC50 (head from b208 on: Pir IC-50).

Like-named read-outs stand apart in the source and are kept apart here.

The term IC50 denotes the concentration needed to halve the response being measured.

`c1csc(CCOc2nsnc2O[C@@H]2CN3CCC[C@H]2C3)c1` (relative stereo) [Compound 189, (±)-endo-3-[2-(2-Thienyl)ethoxy]-4-(1-azabicyclo[3.2.1]octyl-6-oxy)-1,2,5-thiadiozole]: the figures for the half-maximal inhibitory concentration (IC50) in experiment [1] and in experiment [2] (setting [3]) were 1.7 nM and 3.8 nM, respectively.
Consider `CC(C)CCCOc1nsnc1OC1CN2CCC1CC2` (racemic) [Compound 11, (±)-3-(4-Methylpentyloxy)-4-(1-azabicyclo[2.2.2]octyl-3-oxy)-1,2,5-thiadiazole], for which the IC50 in experiment [1] was 29 nM; in experiment [2], 33 nM.
For the compound `CCCCCSc1nsnc1O[C@@H]1CN2CCC1CC2` [Compound 16, (S)-3-Pentylthio-4-(1-azabicyclo[2.2.2]octyl-3-oxy)-1,2,5-thiadiazole], the values for the 50% inhibitory concentration (IC50) in experiment [1] and in experiment [2] were 6.4 nM and 2 nM, respectively.
Regarding `c1nsnc1OC1CN2CCC1CC2` (racemic) [Compound 100, (±)-3-(1-azabicyclo[2.2.2]octyl-3-oxy)-1,2,5-thiadiazole], the half-inhibitory concentration (IC50) in experiment [1] worked out at 873 nM; in experiment [2] (setting [3]), 846 nM.
Regarding `CCCCSc1nsnc1OC1CN2CCC1CC2` (racemic) [Compound 14, (±)-3-Butylthio-4-(1-azabicyclo[2.2.2]octyl-3-oxy)-1,2,5-thiadiazole], the results for the half-maximal inhibitory concentration (IC50) in experiment [1] and in experiment [2] were 1.3 nM and 1.9 nM, respectively.
Turning to `CC(C)(C)c1ccc(COc2nsnc2O[C@@H]2CN3CCC[C@H]2C3)cc1` (relative stereo) [Compound 198, (±)-endo-3-(4-tert-Butylbenzyloxy)-4-(1-azabicyclo[3.2.1]octyl-6-oxy)-1,2,5-thiadiazole], the results for the IC50 in experiment [1] and in experiment [2] (setting [3]) were 31 nM and 120 nM, respectively.
Consider `c1ccc(OCCSc2nsnc2OC2CN3CCC2CC3)cc1` (racemic) [Compound 44, (±)-3-(2-Phenyloxyethylthio)-4-(1-azabicyclo[2.2.2]octyl-3-oxy)-1,2,5-thiadiazole], for which the 50% inhibitory concentration (IC50) in experiment [1] came out at 7.1 nM; in experiment [2], 15 nM.
For `c1csc(Sc2nsnc2OC2CN3CCC2CC3)c1` (racemic) [Compound 60, (±)-3-(2-Thienyl)thio)-4-(1-azabicyclo[2.2.2]octyl-3-oxy)-1,2,5-thiadiazole], in that order: 19 nM and 14 nM.
Regarding `CCCCCSc1nsnc1O[C@H]1CN2CCC[C@H]1C2` (relative stereo) [Compound 23, (±)-exo-3-Pentylthio-4-(1-azabicyclo[3.2.1]octyl-6-oxy)-1,2,5-thiadiazole], the 50% inhibitory concentration (IC50) in experiment [1] is 55 nM; in experiment [2] (setting [3]), 18 nM.
For `Fc1ccc(OCCOc2nsnc2OC2CN3CCC2CC3)cc1` (racemic) [Compound 121, (±)-3-(2-[4-Fluorophenoxy]ethoxy)-4-(1-azabicyclo[2.2.2]octyl-3-oxy)-1,2,5-thiadiazole], in that order: 12 nM and 146 nM.
As for `CCCCOc1nsnc1OCCN(C)C` [Compound 33, 3-Butyloxy-4-(2-(dimethylamino)ethoxy)-1,2,5-thiadiazole], the results for the IC50 in experiment [1] and in experiment [2] (setting [3]) were 51 nM and 48 nM, respectively.
In the case of `CCCCSc1nsnc1OCCN(C)C` [Compound 144, 3-Butylthio-4-(2-dimethylaminoethoxy)-1,2,5-thiadiazole], the half-inhibitory concentration (IC50) in experiment [1] amounted to 12 nM; in experiment [2] (setting [3]) it was 9 nM.
The corresponding values for `CCCCOc1nsnc1OC1CCN(C)C1` (racemic) [Compound 28, (±)-3-Butyloxy-4-(1-methyl-3-pyrrolidinyloxy)-1,2,5-thiadiazole] are 37 nM and 25 nM.
For `CCCCNc1nsnc1OC1CN2CCC1CC2` (racemic) [Compound 75, 3-(1-Butylamino)-4-[(+,-)-3-(azabicyclo[2.2.2]octyloxy)]-1,2,5-thiadiazole], in that order: 65 nM and 128 nM.
As to `COc1ccc(CCCOc2nsnc2O[C@@H]2CN3CCC[C@H]2C3)cc1` (relative stereo) [Compound 193, (±)-endo-3-[3-(4-Methoxyphenyl)propoxy]-4-(1-azabicyclo[3.2.1]octyl-6-oxy)-1,2,5-thiadiazole], the IC50 amounted to 3.7 nM in experiment [1] and 10 nM in experiment [2] (setting [3]).
For `O=C1SCCN1CCCSc1nsnc1OC1CN2CCC1CC2` (racemic) [Compound 61, (±)-3-(3-N-(2-Thiazolidonyl)propylthio)-4-(1-azabicyclo[2.2.2]octyl-3-oxy)1,2,5-thiadiazole], the results for the IC50 in experiment [1] and in experiment [2] were 1.1 nM and 5.8 nM, respectively.
As for `FC(F)(F)c1ccc(OC(CCSc2nsnc2OC2CN3CCC2CC3)c2ccccc2)cc1` (racemic) [Compound 153, (±)-3-(3-Phenyl-3-[4-trifluoromethylphenoxy]propylthio)-4-(1-azabicyclo[2.2.2]octyl-3-oxy)-1,2,5-thiadiazole], the figures for the half-maximal inhibitory concentration (IC50) in experiment [1] and in experiment [2] (setting [3]) were 597 nM and 205 nM, respectively.
Take `c1csc(SCCSc2nsnc2OC2CN3CCC2CC3)c1` (racemic) [Compound 19, (±)-3-(2-(2-Thienylthio)ethylthio)-4-(1-azabicyclo-[2.2.2]octyl-3-oxy)-1,2,5-thiadiazole]: the IC50 came to 0.36 nM in experiment [1] and 7.5 nM in experiment [2].
On to `CCCCSc1nsnc1O[C@@H]1CCC[C@H]1N(C)C` (racemic) [Compound 143, (±)-trans-3-Butylthio-4-(2-dimethylaminocyclopentyloxy)-1,2,5-thiadiazole], for which the IC50 in experiment [1] was 1400 nM; in experiment [2] (setting [3]), 637 nM.
Regarding `CSCCc1nsnc1OC1CN2CCC1CC2` (racemic) [Compound 99, (±)-3-(2-Methylthioethyl)-4-(1-azabicyclo[2.2.2]octyl-3-oxy)-1,2,5-thiadiazole], the IC50 in experiment [1] amounted to 41 nM; in experiment [2] it was 70 nM.
For `CCC#CCCOc1nsnc1O[C@@H]1CN2CCC[C@H]1C2` (relative stereo) [Compound 176, (±)-endo-3-(3-Hexynyloxy)-4-(1-azabicyclo[3.2.1]octyl-6-oxy)-1,2,5-thiadiazole], the figures for the half-maximal inhibitory concentration (IC50) in experiment [1] and in experiment [2] (setting [3]) were 1.3 nM and 3 nM, respectively.
In the case of `CC#CCOc1nsnc1O[C@@H]1CN2CCC[C@H]1C2` (relative stereo) [Compound 168], the IC50 amounted to 1 nM in experiment [1] and 6.4 nM in experiment [2] (setting [3]).
For the compound `CCCCOc1nsnc1OC1CCCNC1` (racemic) [Compound 134, (±)-3-Butyloxy-4-(3-piperidinyloxy)-1,2,5-thiadiazole], the values for the concentration for half-maximal inhibition (IC50) in experiment [1] and in experiment [2] (setting [3]) were 55 nM and 227 nM, respectively.
The corresponding values for `CCCCOc1nsnc1OC1CCNC1` (racemic) [Compound 27, (±)-3-Butyloxy-4-(3-pyrrolidinyloxy)-1,2,5-thiadiazole] are 123 nM and 370 nM.
`CCCCCCSc1nsnc1OC1CN2CCC1CC2` (racemic) [Compound 17, (±)-3-Hexylthio-4-(1-azabicyclo[2.2.2]octyl-3-oxy)-1,2,5-thiadiazole]: the IC50 stood at 5.2 nM in experiment [1] and 8.8 nM in experiment [2].
On to `CCCCOc1nsnc1OC[C@@H]1CCCN1C` [Compound 31, (S)-3-Butyloxy-4-(1-methyl-2-pyrrolidinylmethyloxy)-1,2,5-thiadiazole], for which the values for the IC50 in experiment [1] and in experiment [2] (setting [3]) were 32 nM and 12 nM, respectively.
In the case of `c1ccc(CCCSc2nsnc2O[C@H]2CN3CCC[C@@H]2C3)cc1` (relative stereo) [Compound 72, (±)3-(3-Phenylpropylthio)-4-[endo-6-(1-azabicyclo[3.2.1].cent.octyloxy)]-1,2,5-thiadiazole], the results for the IC50 in experiment [1] and in experiment [2] (setting [3]) were 1.9 nM and 0.55 nM, respectively.
The corresponding values for `C=CCCOc1nsnc1O[C@@H]1CN2CCC[C@H]1C2` (relative stereo) [Compound 184, (±)-endo-3-(3-Butenyloxy)-4-(1-azabicyclo[3.2.1]octyl-6-oxy)-1,2,5-thiadiazole] are 1.2 nM and 2.2 nM.
As to `CCCCOc1nsnc1OCC[N+](C)(C)C` [Compound 35, 3-Butyloxy-4-(2-(trimethylamino)ethoxy)-1,2,5-thiadiazole iodide], the concentration for half-maximal inhibition (IC50) in experiment [1] is 23 nM; in experiment [2] (setting [3]), 33 nM.
Turning to `CCCCOc1nsnc1OC1CC2CCC(C1)N2C` (stereo not drawn) [Compound 45], the figures for the IC50 in experiment [1] and in experiment [2] were 29 nM and 4.6 nM, respectively.
For the compound `CSCCOc1nsnc1OC1CN2CCC1CC2` (racemic) [Compound 115, (±)-3-(2-(Methylthio)ethoxy)-4-(1-azabicyclo[2.2.2]octyl-3-oxy)-1,2,5-thiadiazole], the results for the half-maximal inhibitory concentration (IC50) in experiment [1] and in experiment [2] (setting [3]) were 19 nM and 532 nM, respectively.
As to `ClCCCOc1nsnc1O[C@@H]1CN2CCC[C@H]1C2` (relative stereo) [Compound 177, (±)-endo-3-(3-Chloropropoxy)-4-(1-azabicyclo[3.2.1]octyl-6-oxy)-1,2,5-thiadiazole], the values for the concentration for half-maximal inhibition (IC50) in experiment [1] and in experiment [2] (setting [3]) were 1.1 nM and 2 nM, respectively.
Regarding `CC#CCOc1nsnc1OC1CN2CCC1CC2` (racemic) [Compound 105, (±)-3-(2-butynyloxy)-4-(1-azabicyclo[2.2.2]octyl-3-oxy)-1,2,5-thiadiazole], the IC50 in experiment [1] was found to be 7.9 nM; in experiment [2] it was 65.6 nM.

Source of the values: patent publication US5665745A, “Heterocyclic compounds and their preparation and use” (Eli Lilly and Company, priority 1995, dated 1997).
